# Test results reported in patent US20080009418A1, “Selective Inhibitors” (Alchemia LTD., priority 2004, published 2008).
# Experiments:
# Conditions in all cases: compound at 10 μM
# Human opioid (ORL1) = biological target: T1, Human opioid (ORL1) (Homo sapiens, UniProt P41146); assay: Radioligand binding, human opioid ORL1 membranes, FlashPlate, [125I]-Nociceptin
# T1 construct: purchased Perkin Elmer Biosignal
# Outline: (§1)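 Cloned human receptor membranes were coated onto FlashPlate wells and incubated with radioligand and compound (added from a 0.5 mM DMSO daughter plate) for 1 hour at room temperature in the dark. Scintillation counting gave percent inhibition, with DMSO defining total and reference ligand defining non-specific binding.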
# Human neurokinin (NK1) = biological target: T2, Human neurokinin (NK1) (Homo sapiens, UniProt P25103); assay: Radioligand binding, human neurokinin NK1 membranes, filtration, [125I]-Substance P
# T2 construct: purchased Perkin Elmer Biosignal
# Outline: (§2)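 Percent inhibition of radioligand binding measured on recombinant human membranes: NK1 with [125I]-Substance P, KOP with [3H]-Diprenorphine. Incubation 1 h at room temperature, then harvest onto 0.3% PEI-soaked filters, cold Tris-HCl pH 7.4 washes and scintillation counting; non-specific binding from reference ligand wells.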
# [1] = biological target: T3, Human neuropeptide Y (NPY-Y1) (Homo sapiens, UniProt P25929); assay: Radioligand binding, human neuropeptide Y NPY-Y1 membranes, FlashPlate, [125I]-PYY
# T3 construct: purchased Perkin Elmer Biosignal
# T3 sequence (P25929 1-384): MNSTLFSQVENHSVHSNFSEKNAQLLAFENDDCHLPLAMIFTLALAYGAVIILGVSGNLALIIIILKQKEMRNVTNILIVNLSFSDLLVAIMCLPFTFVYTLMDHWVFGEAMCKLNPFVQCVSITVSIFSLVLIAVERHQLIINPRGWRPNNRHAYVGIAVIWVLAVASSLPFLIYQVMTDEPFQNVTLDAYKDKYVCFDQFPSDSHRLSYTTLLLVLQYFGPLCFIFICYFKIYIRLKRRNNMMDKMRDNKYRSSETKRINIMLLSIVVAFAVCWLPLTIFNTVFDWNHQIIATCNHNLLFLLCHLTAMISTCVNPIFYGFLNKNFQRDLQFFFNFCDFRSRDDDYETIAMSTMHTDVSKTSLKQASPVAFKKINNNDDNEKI
# Outline: as §1
# Human δ-opioid (DOP) = biological target: T4, Human δ-opioid (DOP) (Homo sapiens, UniProt P41143); assay: Radioligand binding, human δ-opioid (DOP) membranes, FlashPlate, [3H]-Bremazocine
# T4 construct: purchased Perkin Elmer Biosignal
# Outline: as §1
# Human Melanocortin (MC3) = biological target: T5, Human Melanocortin (MC3) (Homo sapiens, UniProt P41968); assay: Radioligand binding, human melanocortin MC3 membranes, FlashPlate, [125I]-NDP-αMSH
# T5 construct: purchased Perkin Elmer Biosignal
# Outline: as §1
# Human μ-opioid (MOP) = biological target: T6, Human μ-opioid (MOP) (Homo sapiens, UniProt P35372); assay: Radioligand binding, human μ-opioid (MOP) membranes, FlashPlate, [3H]-Naloxone
# T6 construct: purchased Perkin Elmer Biosignal
# Outline: as §1
# Human melanocortin (MC5) = biological target: T7, Human melanocortin (MC5) (Homo sapiens, UniProt P33032); assay: Radioligand binding, human melanocortin MC5 membranes, FlashPlate, [125I]-NDP-αMSH
# T7 construct: purchased Perkin Elmer Biosignal
# Outline: as §1
# Mouse urotensin (mUR2) = biological target: T8, Mouse urotensin (mUR2) (Mus musculus, UniProt Q8VIH9); assay: Radioligand binding, mouse urotensin mUR2 membranes, FlashPlate, [125I]-Urotensin II
# T8 construct: purchased Perkin Elmer Biosignal
# T8 sequence (Q8VIH9 1-385): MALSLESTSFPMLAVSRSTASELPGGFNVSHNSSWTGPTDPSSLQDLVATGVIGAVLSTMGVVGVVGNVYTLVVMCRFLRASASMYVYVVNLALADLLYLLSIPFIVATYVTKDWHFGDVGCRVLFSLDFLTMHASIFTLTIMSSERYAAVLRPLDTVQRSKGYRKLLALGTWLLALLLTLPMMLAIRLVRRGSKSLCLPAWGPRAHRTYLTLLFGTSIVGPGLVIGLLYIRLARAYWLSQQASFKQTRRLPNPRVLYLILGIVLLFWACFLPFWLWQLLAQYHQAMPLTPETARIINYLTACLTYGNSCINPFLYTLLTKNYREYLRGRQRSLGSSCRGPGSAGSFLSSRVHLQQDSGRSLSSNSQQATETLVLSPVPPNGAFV
# Outline: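 Cloned mouse urotensin (mUR2) receptor membranes from Perkin Elmer Biosignal were immobilized in FlashPlate microplates using a proprietary coating. Each well got 19.5 μl buffer, then 0.5 μl of DMSO, reference ligand, or compound. Adding 5 μl of [125I]-Urotensin II, diluted to 5× final concentration in binding buffer, started binding. Plates were sealed with TopSeal-A and incubated 1 hour at room temperature in the dark. Wells were counted for 30 seconds each on a TopCount after a 60-second delay, and percentage inhibition was calculated.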
# [2] = biological target: T9, Human melanin-concentrating hormone (MCH1) (Homo sapiens, UniProt Q99705); assay: Radioligand binding, human melanin-concentrating hormone MCH1 membranes, FlashPlate, [125I]-S36057
# T9 construct: purchased Perkin Elmer Biosignal
# Outline: as §1
# Human κ-Opioid (KOP) = biological target: T10, Human κ-Opioid (KOP) (Homo sapiens, UniProt P41145); assay: Radioligand binding, human κ-opioid (KOP) membranes, filtration, [3H]-Diprenorphine
# T10 construct: purchased Perkin Elmer Biosignal
# Outline: as §2
# Human Melanocortin (MC4) = biological target: T11, Human Melanocortin (MC4) (Homo sapiens, UniProt P32245); assay: Radioligand binding, human melanocortin MC4 membranes, FlashPlate, [125I]-NDP-αMSH
# T11 construct: purchased Perkin Elmer Biosignal
# Outline: as §1
# T9 sequence (Q99705 whole entry): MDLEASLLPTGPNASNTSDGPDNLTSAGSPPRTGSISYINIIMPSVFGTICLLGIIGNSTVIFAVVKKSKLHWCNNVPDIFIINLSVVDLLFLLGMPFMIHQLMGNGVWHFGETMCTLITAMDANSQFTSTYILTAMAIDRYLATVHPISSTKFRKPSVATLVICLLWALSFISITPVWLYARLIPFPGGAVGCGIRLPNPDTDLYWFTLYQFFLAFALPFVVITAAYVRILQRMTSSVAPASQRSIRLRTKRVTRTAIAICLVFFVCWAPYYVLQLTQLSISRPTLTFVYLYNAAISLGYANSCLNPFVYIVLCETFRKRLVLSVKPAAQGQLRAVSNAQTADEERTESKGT
# T6 sequence (P35372 whole entry): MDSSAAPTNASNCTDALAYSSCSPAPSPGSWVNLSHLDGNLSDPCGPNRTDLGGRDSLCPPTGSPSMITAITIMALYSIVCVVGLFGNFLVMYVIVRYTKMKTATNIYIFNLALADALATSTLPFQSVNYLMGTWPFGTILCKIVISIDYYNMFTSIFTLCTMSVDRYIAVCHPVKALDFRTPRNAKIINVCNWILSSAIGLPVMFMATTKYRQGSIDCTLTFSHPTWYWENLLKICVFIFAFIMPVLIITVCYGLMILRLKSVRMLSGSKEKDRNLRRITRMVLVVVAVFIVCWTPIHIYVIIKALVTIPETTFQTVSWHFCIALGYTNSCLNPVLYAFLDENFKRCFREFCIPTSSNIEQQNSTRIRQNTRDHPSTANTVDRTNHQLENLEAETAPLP
# T2 sequence (P25103 whole entry): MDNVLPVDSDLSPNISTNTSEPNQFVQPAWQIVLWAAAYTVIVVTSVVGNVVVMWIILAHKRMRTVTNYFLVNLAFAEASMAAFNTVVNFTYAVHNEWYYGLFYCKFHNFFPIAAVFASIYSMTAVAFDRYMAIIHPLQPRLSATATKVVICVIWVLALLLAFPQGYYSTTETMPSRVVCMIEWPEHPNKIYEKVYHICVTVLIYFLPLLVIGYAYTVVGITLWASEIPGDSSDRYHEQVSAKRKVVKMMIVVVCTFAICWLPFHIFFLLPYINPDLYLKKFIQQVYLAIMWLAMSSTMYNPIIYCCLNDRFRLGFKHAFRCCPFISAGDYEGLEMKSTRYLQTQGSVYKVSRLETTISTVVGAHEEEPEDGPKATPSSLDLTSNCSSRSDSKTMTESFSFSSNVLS
# T4 sequence (P41143 whole entry): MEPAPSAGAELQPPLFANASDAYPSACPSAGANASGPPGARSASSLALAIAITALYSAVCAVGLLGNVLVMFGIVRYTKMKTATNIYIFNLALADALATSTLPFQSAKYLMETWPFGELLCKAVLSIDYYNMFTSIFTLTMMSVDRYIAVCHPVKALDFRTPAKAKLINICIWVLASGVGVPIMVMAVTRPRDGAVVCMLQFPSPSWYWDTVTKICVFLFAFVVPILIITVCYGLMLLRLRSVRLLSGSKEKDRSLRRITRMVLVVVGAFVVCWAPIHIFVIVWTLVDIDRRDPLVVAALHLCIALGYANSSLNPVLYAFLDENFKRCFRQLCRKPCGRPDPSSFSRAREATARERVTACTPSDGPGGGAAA
# T5 sequence (P41968 whole entry): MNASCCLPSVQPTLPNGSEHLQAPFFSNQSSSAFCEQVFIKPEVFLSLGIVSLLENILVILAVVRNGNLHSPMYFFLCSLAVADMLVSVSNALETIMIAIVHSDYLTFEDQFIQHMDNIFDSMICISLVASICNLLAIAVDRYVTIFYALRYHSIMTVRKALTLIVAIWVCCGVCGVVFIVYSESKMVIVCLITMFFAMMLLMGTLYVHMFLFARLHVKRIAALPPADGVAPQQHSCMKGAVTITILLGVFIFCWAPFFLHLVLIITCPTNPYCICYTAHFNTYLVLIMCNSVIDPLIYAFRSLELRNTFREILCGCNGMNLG
# T10 sequence (P41145 whole entry): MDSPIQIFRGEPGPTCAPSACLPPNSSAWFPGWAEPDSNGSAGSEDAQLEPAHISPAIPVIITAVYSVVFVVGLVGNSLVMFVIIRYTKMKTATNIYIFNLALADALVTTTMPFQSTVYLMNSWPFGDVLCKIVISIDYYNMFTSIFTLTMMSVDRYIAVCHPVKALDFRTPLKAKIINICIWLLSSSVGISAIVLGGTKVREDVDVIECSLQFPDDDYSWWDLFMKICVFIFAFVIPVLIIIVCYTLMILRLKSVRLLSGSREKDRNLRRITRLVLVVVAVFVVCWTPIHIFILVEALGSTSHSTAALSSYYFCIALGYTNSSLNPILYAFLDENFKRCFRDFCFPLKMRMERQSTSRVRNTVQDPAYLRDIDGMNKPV
# T11 sequence (P32245 whole entry): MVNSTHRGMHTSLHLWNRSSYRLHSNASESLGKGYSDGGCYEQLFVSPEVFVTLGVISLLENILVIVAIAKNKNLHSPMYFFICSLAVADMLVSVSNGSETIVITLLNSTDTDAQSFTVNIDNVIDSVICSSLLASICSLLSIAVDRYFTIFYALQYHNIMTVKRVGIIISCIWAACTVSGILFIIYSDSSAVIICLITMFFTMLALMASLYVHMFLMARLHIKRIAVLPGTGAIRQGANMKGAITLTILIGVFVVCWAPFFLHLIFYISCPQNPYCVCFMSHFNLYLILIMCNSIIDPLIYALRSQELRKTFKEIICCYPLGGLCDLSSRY
# T1 sequence (P41146 whole entry): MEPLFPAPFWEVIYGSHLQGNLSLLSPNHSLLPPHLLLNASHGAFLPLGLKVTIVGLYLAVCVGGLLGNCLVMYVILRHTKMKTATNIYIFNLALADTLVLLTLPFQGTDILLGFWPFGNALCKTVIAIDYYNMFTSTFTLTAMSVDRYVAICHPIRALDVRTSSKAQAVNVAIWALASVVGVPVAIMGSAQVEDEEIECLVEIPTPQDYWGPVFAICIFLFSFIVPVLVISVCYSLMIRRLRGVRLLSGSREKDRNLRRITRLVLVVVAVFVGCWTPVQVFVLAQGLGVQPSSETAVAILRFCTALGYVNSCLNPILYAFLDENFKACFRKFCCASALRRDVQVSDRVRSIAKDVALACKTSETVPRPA
# T7 sequence (P33032 whole entry): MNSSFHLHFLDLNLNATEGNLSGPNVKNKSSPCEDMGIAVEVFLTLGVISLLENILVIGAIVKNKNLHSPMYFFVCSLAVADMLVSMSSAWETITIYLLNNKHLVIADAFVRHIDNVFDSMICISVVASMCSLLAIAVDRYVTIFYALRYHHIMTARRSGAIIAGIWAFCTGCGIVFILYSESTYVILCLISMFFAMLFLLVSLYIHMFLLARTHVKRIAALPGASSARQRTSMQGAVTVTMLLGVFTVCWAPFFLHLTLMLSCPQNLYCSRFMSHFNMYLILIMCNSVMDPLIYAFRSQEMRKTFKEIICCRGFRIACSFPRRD
structure (smiles),measurement,setting,value
CO[C@H]1[C@H](O)[C@@H](COCc2ccc(Cl)cc2)OC(OCc2ccccc2)[C@@H]1NC(=O)CNC(=N)N (stereo partly drawn) [compound 90],A10 radioligand binding inhibition,Human opioid (ORL1); human ORL1 membranes,− (“−” indicates less than 50% inhibition at 10 μM)
same,A8 radioligand binding inhibition,Human neurokinin (NK1); human neurokinin NK1 membranes,+ (“+” indicates greater than 50% inhibition at 10 μM)
same,A9 radioligand binding inhibition,[1]; human NPY-Y1 membranes,− (“−” indicates less than 50% inhibition at 10 μM)
same,A1 radioligand binding inhibition,Human δ-opioid (DOP); human δ-opioid (DOP) membranes,− (“−” indicates less than 50% inhibition at 10 μM)
same,A3 radioligand binding inhibition,Human Melanocortin (MC3); human melanocortin MC3 membranes,− (“−” indicates less than 50% inhibition at 10 μM)
same,A7 radioligand binding inhibition,Human μ-opioid (MOP); human μ-opioid (MOP) membranes,− (“−” indicates less than 50% inhibition at 10 μM)
same,A5 radioligand binding inhibition,Human melanocortin (MC5); human melanocortin MC5 membranes,− (“−” indicates less than 50% inhibition at 10 μM)
same,A11 radioligand binding inhibition,Mouse urotensin (mUR2); mouse urotensin mUR2 membranes,− (“−” indicates less than 50% inhibition at 10 μM)
same,A6 radioligand binding inhibition,[2]; human MCH1 membranes,− (“−” indicates less than 50% inhibition at 10 μM)
same,A2 radioligand binding inhibition,Human κ-Opioid (KOP); human κ-opioid (KOP) membranes,− (“−” indicates less than 50% inhibition at 10 μM)
same,A4 radioligand binding inhibition,Human Melanocortin (MC4); human melanocortin MC4 membranes,− (“−” indicates less than 50% inhibition at 10 μM)
NCCC(=O)NC1COC(COCc2ccc(-c3ccccc3)cc2)C(O)C1OCc1ccc(Cl)cc1 (stereo not drawn) [compound 544],"A10: inhibition of radioligand binding, human opioid (ORL1)",Human opioid (ORL1); [125I]-Nociceptin,− (“−” indicates less than 50% inhibition at 10 μM)
same,"A8: inhibition of radioligand binding, human neurokinin (NK1)",Human neurokinin (NK1); [125I]-Substance P,+ (“+” indicates greater than 50% inhibition at 10 μM)
same,"A9: inhibition of radioligand binding, human neuropeptide Y (NPY-Y1)",[1]; [125I]-PYY,− (“−” indicates less than 50% inhibition at 10 μM)
same,"A1: inhibition of radioligand binding, human δ-opioid (DOP)",Human δ-opioid (DOP); [3H]-Bremazocine,− (“−” indicates less than 50% inhibition at 10 μM)
same,"A3: inhibition of radioligand binding, human melanocortin (MC3)",Human Melanocortin (MC3); [125I]-NDP-αMSH,+ (“+” indicates greater than 50% inhibition at 10 μM)
same,"A7: inhibition of radioligand binding, human μ-opioid (MOP)",Human μ-opioid (MOP); [3H]-Naloxone,− (“−” indicates less than 50% inhibition at 10 μM)
same,"A5: inhibition of radioligand binding, human melanocortin (MC5)",Human melanocortin (MC5); [125I]-NDP-αMSH,− (“−” indicates less than 50% inhibition at 10 μM)
same,"A11: inhibition of radioligand binding, mouse urotensin (mUR2)",Mouse urotensin (mUR2); [125I]-Urotensin II,− (“−” indicates less than 50% inhibition at 10 μM)
same,"A6: inhibition of radioligand binding, human melanin-concentrating hormone (MCH1)",[2]; [125I]-S36057,− (“−” indicates less than 50% inhibition at 10 μM)
same,"A2: inhibition of radioligand binding, human κ-opioid (KOP)",Human κ-Opioid (KOP); [3H]-Diprenorphine,+ (“+” indicates greater than 50% inhibition at 10 μM)
same,"A4: inhibition of radioligand binding, human melanocortin (MC4)",Human Melanocortin (MC4); [125I]-NDP-αMSH,− (“−” indicates less than 50% inhibition at 10 μM)
COC[C@H]1OC(OCc2ccc(-c3ccccc3)cc2)[C@H](NC(=O)CNC(=N)N)[C@@H](OCc2cccc(O)c2)[C@@H]1O (stereo partly drawn) [compound 129],"A10 radioligand binding, percentage inhibition",Human opioid (ORL1); [125I]-Nociceptin,− (“−” indicates less than 50% inhibition at 10 μM)
same,"A8 radioligand binding, percentage inhibition",Human neurokinin (NK1); [125I]-Substance P,− (“−” indicates less than 50% inhibition at 10 μM)
same,"A9 radioligand binding, percentage inhibition",[1]; [125I]-PYY,− (“−” indicates less than 50% inhibition at 10 μM)
same,"A1 radioligand binding, percentage inhibition",Human δ-opioid (DOP); [3H]-Bremazocine,− (“−” indicates less than 50% inhibition at 10 μM)
same,"A3 radioligand binding, percentage inhibition",Human Melanocortin (MC3); [125I]-NDP-αMSH,− (“−” indicates less than 50% inhibition at 10 μM)
same,"A7 radioligand binding, percentage inhibition",Human μ-opioid (MOP); [3H]-Naloxone,+ (“+” indicates greater than 50% inhibition at 10 μM)
same,"A5 radioligand binding, percentage inhibition",Human melanocortin (MC5); [125I]-NDP-αMSH,− (“−” indicates less than 50% inhibition at 10 μM)
same,"A11 radioligand binding, percentage inhibition",Mouse urotensin (mUR2); [125I]-Urotensin II,− (“−” indicates less than 50% inhibition at 10 μM)
same,"A6 radioligand binding, percentage inhibition",[2]; [125I]-S36057,− (“−” indicates less than 50% inhibition at 10 μM)
same,"A2 radioligand binding, percentage inhibition",Human κ-Opioid (KOP); [3H]-Diprenorphine,− (“−” indicates less than 50% inhibition at 10 μM)
same,"A4 radioligand binding, percentage inhibition",Human Melanocortin (MC4); [125I]-NDP-αMSH,− (“−” indicates less than 50% inhibition at 10 μM)
